Legend:
[1] = target: T1, hDM2 (Homo sapiens, UniProt Q00987); experiment: biochemical; set-up: fluorescence anisotropy competition, displacement of fluorescein-labelled p53 15-31 peptide from hDM2; conditions: read-out: FA IC50
T1 construct: gene MDM2; 15N-labelled for NMR; the anisotropy footnote prints hDM2_17-25, apparently a misprint of 17-125
Description: The assay was then implemented similarly to the examples above to give final compound concentrations between 160 – 0.08 µM. IC50 values were determined and curves were fit in Origin Pro 2019b using a non-linear curve fitting with the dose response fitting procedure and Levenberg Marquardt iteration algorithm. 17 5.2 Fluorescence anisotropy assays The fluorescein-labelled p5315-31 Flu transactivation domain peptide (Ac-[…](Flu)- NH2) was purchased from Peptide Synthetics. The assay was carried out using Perkin-Elmer 384-well Opti-plate assay plates (6007270). Fluorescence anisotropy assays were performed in a buffer containing 40 mM phosphate pH 7.5, 200 mM NaCl and 0.02 mg/mL bovine serum albumin (PBSA). Results were collected using a Perkin-Elmer Envision 2103 Multilabel Reader using a 431 nm mirror, 480(104) nm excitation filter, and 535(208) and 535(209) nm emission filters after 2.5 or 24 hours of incubation at room temperature. Test well anisotropy values were then calculated using the blank corrected S and P channel values using the following formula: […]

[2] = target: T1, hDM2; experiment: fluorescence anisotropy competition, displacement of fluorescein-labelled p53 tracer peptide; assay type: binding; conditions: for IC50: read-out: Fluorescence anisotropy^[c] IC50
From the text: fluorescence anisotropy competition, displacement of fluorescein-labelled p53 tracer peptide on hDM2

[3] = target: T1, hDM2; experiment: 1H-15N HSQC NMR titration; conditions: read-out: NMR Binding^[d] (K d/μM)
From the text: 1H-15N HSQC NMR titration on hDM2

| SMILES | IC50 [1] | IC50 [2] | further results |
| --- | --- | --- | --- |
| O=C(CO[C@H]1CCc2cc(Cl)ccc21)N1CC[C@H](c2ccccc2)C1 [ent-P2a] | 26 ± 3.8 µM | – | – |
| CN(C(=O)C(=O)c1ccc(Cl)cc1)c1ccc(Cl)cc1 [P4] | – | > 30 µM | Kd [3]: 35 ± 16 µM |
| CCOCC1CC12C(=O)Nc1cc(Cl)ccc12 (centres unmarked) [P7] | – | > 160 µM | – |
| O=C(COC1CCc2cc(Cl)ccc21)N1CCC(c2ccccc2)C1 (centres unmarked) [P2] | – | 15 ± 0.1 µM | Kd [3]: 34 ± 13 µM |
| O=C(CO[C@H]1CCc2cc(Cl)ccc21)N1CC[C@@H](c2ccccc2)C1 [P2b] | 36.5 ± 3.5 µM | – | – |
| O=C(COC1CCCC1)N1CCC(c2ccccc2)C1 (centres unmarked) [SI1] | > 200 µM | – | – |
| O=C1Nc2cc(Cl)ccc2C12CC2c1ccc(Cl)cc1 (centres unmarked) [P5] | – | – | Fluorescence anisotropy^[c] IC50 [μM] ([2]; […] hDM2, […] tracer, […] BSA, […] NaCl, […] DMSO, […] phosphate pH […] h, unreliable (limited solubility)): ~ 10 μM |
| O=C(CO[C@@H]1CCc2cc(Cl)ccc21)N1CC[C@@H](c2ccccc2)C1 [P2a] | 28.2 ± 3 µM | – | – |
| O=C(CO[C@@H]1CCc2cc(Cl)ccc21)N1CC[C@H](c2ccccc2)C1 [ent-P2b] | 28.6 ± 2.9 µM | – | – |
| O=C1Nc2cc(Cl)ccc2C1c1c[nH]c2cc(Cl)ccc12 (centres unmarked) [P6] | – | 0.94 ± 0.03 µM | – |
| CN1C(=O)C(c2ccc(Cl)cc2)c2cc(Cl)ccc21 (centres unmarked) [P3] | – | > 100 µM | – |
| O=C(COC1CCc2cc(Cl)ccc21)N1CCCC1 (centres unmarked) [SI2] | > 200 µM | – | – |
